# Laboratory results taken from the supplement of paper PMC4862054.
# System: DU-4475
# Experiment: normalised response (% of control), CellTiter-Glo; higher = more viable cells (100 = DMSO, 0 = benzethonium chloride kill control)
# Details: incubation time: 72 h
# Method: (§1)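 DSRT, 72 h incubation, CellTox Green / CellTiter-Glo readout. Signal is normalised to DMSO and benzethonium chloride controls. Value is the normalised response at the highest dose.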
row,Compound,normalised response
1,COC(=O)C[C@](O)(CCCC(C)(C)O)C(=O)O[C@@H]1C(OC)=C[C@]23CCCN2CCc2cc4c(cc2[C@H]13)OCO4 [Omacetaxine] (10000 nM),10.2%
2,Cc1cc(C(C)Nc2ccccc2)c2nc(N3CCOCC3)cc(=O)n2c1 (stereo not given) [TGX-221] (10000 nM),95.6%
3,FC(F)c1nc2ccccc2n1-c1nc(N2CCOCC2)nc(N2CCOCC2)n1 [ZSTK474] (10000 nM),67.5%
4,COc1cc(Nc2ncc(F)c(Nc3ccc4c(n3)NC(=O)C(C)(C)O4)n2)cc(OC)c1OC [Tamatinib] (10000 nM),107%
5,C[C@@H]1CCN(C(=O)CC#N)C[C@@H]1N(C)c1ncnc2[nH]ccc12 [Tofacitinib] (5000 nM),99.4%
6,CCCC(CCC)C(=O)O [Valproic acid] (1000000 nM),89.9%

# System: MFM-223
# Experiment: as above
# Details: incubation time: 72 h
# Method: as §1
row,Compound,normalised response
1,COC(=O)C[C@](O)(CCCC(C)(C)O)C(=O)O[C@@H]1C(OC)=C[C@]23CCCN2CCc2cc4c(cc2[C@H]13)OCO4 [Omacetaxine] (10000 nM),3.94%
2,Cc1cc(C(C)Nc2ccccc2)c2nc(N3CCOCC3)cc(=O)n2c1 (stereo not given) [TGX-221] (10000 nM),88.7%
3,FC(F)c1nc2ccccc2n1-c1nc(N2CCOCC2)nc(N2CCOCC2)n1 [ZSTK474] (10000 nM),29.5%
4,COc1cc(Nc2ncc(F)c(Nc3ccc4c(n3)NC(=O)C(C)(C)O4)n2)cc(OC)c1OC [Tamatinib] (10000 nM),110%
5,C[C@@H]1CCN(C(=O)CC#N)C[C@@H]1N(C)c1ncnc2[nH]ccc12 [Tofacitinib] (5000 nM),104%
6,CCCC(CCC)C(=O)O [Valproic acid] (1000000 nM),96.3%

# System: CAL-85-1
# Experiment: as above
# Details: incubation time: 72 h
# Method: as §1
row,Compound,normalised response
1,COC(=O)C[C@](O)(CCCC(C)(C)O)C(=O)O[C@@H]1C(OC)=C[C@]23CCCN2CCc2cc4c(cc2[C@H]13)OCO4 [Omacetaxine] (10000 nM),1.11%
2,Cc1cc(C(C)Nc2ccccc2)c2nc(N3CCOCC3)cc(=O)n2c1 (stereo not given) [TGX-221] (10000 nM),98.2%
3,FC(F)c1nc2ccccc2n1-c1nc(N2CCOCC2)nc(N2CCOCC2)n1 [ZSTK474] (10000 nM),20.2%
4,COc1cc(Nc2ncc(F)c(Nc3ccc4c(n3)NC(=O)C(C)(C)O4)n2)cc(OC)c1OC [Tamatinib] (10000 nM),97.5%
5,C[C@@H]1CCN(C(=O)CC#N)C[C@@H]1N(C)c1ncnc2[nH]ccc12 [Tofacitinib] (5000 nM),109%
6,CCCC(CCC)C(=O)O [Valproic acid] (1000000 nM),96.7%

# System: MCF-10A
# Experiment: as above
# Details: incubation time: 72 h
# Method: as §1
row,Compound,normalised response
1,COC(=O)C[C@](O)(CCCC(C)(C)O)C(=O)O[C@@H]1C(OC)=C[C@]23CCCN2CCc2cc4c(cc2[C@H]13)OCO4 [Omacetaxine] (10000 nM),1.54%
2,Cc1cc(C(C)Nc2ccccc2)c2nc(N3CCOCC3)cc(=O)n2c1 (stereo not given) [TGX-221] (10000 nM),82.5%
3,FC(F)c1nc2ccccc2n1-c1nc(N2CCOCC2)nc(N2CCOCC2)n1 [ZSTK474] (10000 nM),26.2%
4,COc1cc(Nc2ncc(F)c(Nc3ccc4c(n3)NC(=O)C(C)(C)O4)n2)cc(OC)c1OC [Tamatinib] (10000 nM),107%
5,C[C@@H]1CCN(C(=O)CC#N)C[C@@H]1N(C)c1ncnc2[nH]ccc12 [Tofacitinib] (5000 nM),97.2%
6,CCCC(CCC)C(=O)O [Valproic acid] (1000000 nM),94.6%

# System: MDA-MB-468
# Experiment: as above
# Details: incubation time: 72 h
# Method: as §1
row,Compound,normalised response
1,COC(=O)C[C@](O)(CCCC(C)(C)O)C(=O)O[C@@H]1C(OC)=C[C@]23CCCN2CCc2cc4c(cc2[C@H]13)OCO4 [Omacetaxine] (10000 nM),4.57%
2,Cc1cc(C(C)Nc2ccccc2)c2nc(N3CCOCC3)cc(=O)n2c1 (stereo not given) [TGX-221] (10000 nM),58.1%
3,FC(F)c1nc2ccccc2n1-c1nc(N2CCOCC2)nc(N2CCOCC2)n1 [ZSTK474] (10000 nM),36.6%
4,COc1cc(Nc2ncc(F)c(Nc3ccc4c(n3)NC(=O)C(C)(C)O4)n2)cc(OC)c1OC [Tamatinib] (10000 nM),71.2%
5,C[C@@H]1CCN(C(=O)CC#N)C[C@@H]1N(C)c1ncnc2[nH]ccc12 [Tofacitinib] (5000 nM),105%
6,CCCC(CCC)C(=O)O [Valproic acid] (1000000 nM),97.8%

# System: HCC1599
# Experiment: as above
# Details: incubation time: 72 h
# Method: as §1
row,Compound,normalised response
1,COC(=O)C[C@](O)(CCCC(C)(C)O)C(=O)O[C@@H]1C(OC)=C[C@]23CCCN2CCc2cc4c(cc2[C@H]13)OCO4 [Omacetaxine] (10000 nM),6.51%
2,Cc1cc(C(C)Nc2ccccc2)c2nc(N3CCOCC3)cc(=O)n2c1 (stereo not given) [TGX-221] (10000 nM),99.2%
3,FC(F)c1nc2ccccc2n1-c1nc(N2CCOCC2)nc(N2CCOCC2)n1 [ZSTK474] (10000 nM),71.7%
4,COc1cc(Nc2ncc(F)c(Nc3ccc4c(n3)NC(=O)C(C)(C)O4)n2)cc(OC)c1OC [Tamatinib] (10000 nM),91.6%
5,C[C@@H]1CCN(C(=O)CC#N)C[C@@H]1N(C)c1ncnc2[nH]ccc12 [Tofacitinib] (5000 nM),106%
6,CCCC(CCC)C(=O)O [Valproic acid] (1000000 nM),98.2%

# System: HCC1937
# Experiment: as above
# Details: incubation time: 72 h
# Method: as §1
row,Compound,normalised response
1,COC(=O)C[C@](O)(CCCC(C)(C)O)C(=O)O[C@@H]1C(OC)=C[C@]23CCCN2CCc2cc4c(cc2[C@H]13)OCO4 [Omacetaxine] (10000 nM),17.7%
2,Cc1cc(C(C)Nc2ccccc2)c2nc(N3CCOCC3)cc(=O)n2c1 (stereo not given) [TGX-221] (10000 nM),78.6%
3,FC(F)c1nc2ccccc2n1-c1nc(N2CCOCC2)nc(N2CCOCC2)n1 [ZSTK474] (10000 nM),39.1%
4,COc1cc(Nc2ncc(F)c(Nc3ccc4c(n3)NC(=O)C(C)(C)O4)n2)cc(OC)c1OC [Tamatinib] (10000 nM),97.5%
5,C[C@@H]1CCN(C(=O)CC#N)C[C@@H]1N(C)c1ncnc2[nH]ccc12 [Tofacitinib] (5000 nM),100%
6,CCCC(CCC)C(=O)O [Valproic acid] (1000000 nM),100%

# System: HDQ-P1
# Experiment: as above
# Details: incubation time: 72 h
# Method: as §1
row,Compound,normalised response
1,COC(=O)C[C@](O)(CCCC(C)(C)O)C(=O)O[C@@H]1C(OC)=C[C@]23CCCN2CCc2cc4c(cc2[C@H]13)OCO4 [Omacetaxine] (10000 nM),21.1%
2,Cc1cc(C(C)Nc2ccccc2)c2nc(N3CCOCC3)cc(=O)n2c1 (stereo not given) [TGX-221] (10000 nM),88.6%
3,FC(F)c1nc2ccccc2n1-c1nc(N2CCOCC2)nc(N2CCOCC2)n1 [ZSTK474] (10000 nM),33%
4,COc1cc(Nc2ncc(F)c(Nc3ccc4c(n3)NC(=O)C(C)(C)O4)n2)cc(OC)c1OC [Tamatinib] (10000 nM),100%
5,C[C@@H]1CCN(C(=O)CC#N)C[C@@H]1N(C)c1ncnc2[nH]ccc12 [Tofacitinib] (5000 nM),102%
6,CCCC(CCC)C(=O)O [Valproic acid] (1000000 nM),103%

# System: CAL-148
# Experiment: as above
# Details: incubation time: 72 h
# Method: as §1
row,Compound,normalised response
1,COC(=O)C[C@](O)(CCCC(C)(C)O)C(=O)O[C@@H]1C(OC)=C[C@]23CCCN2CCc2cc4c(cc2[C@H]13)OCO4 [Omacetaxine] (10000 nM),26.6%
2,Cc1cc(C(C)Nc2ccccc2)c2nc(N3CCOCC3)cc(=O)n2c1 (stereo not given) [TGX-221] (10000 nM),105%
3,FC(F)c1nc2ccccc2n1-c1nc(N2CCOCC2)nc(N2CCOCC2)n1 [ZSTK474] (10000 nM),38.7%
4,COc1cc(Nc2ncc(F)c(Nc3ccc4c(n3)NC(=O)C(C)(C)O4)n2)cc(OC)c1OC [Tamatinib] (10000 nM),109%
5,C[C@@H]1CCN(C(=O)CC#N)C[C@@H]1N(C)c1ncnc2[nH]ccc12 [Tofacitinib] (5000 nM),109%
6,CCCC(CCC)C(=O)O [Valproic acid] (1000000 nM),88.4%

# System: MDA-MB-231
# Experiment: as above
# Details: incubation time: 72 h
# Method: as §1
row,Compound,normalised response
1,COC(=O)C[C@](O)(CCCC(C)(C)O)C(=O)O[C@@H]1C(OC)=C[C@]23CCCN2CCc2cc4c(cc2[C@H]13)OCO4 [Omacetaxine] (10000 nM),2.58%
